Test results: patent US11186575B2, “Treatment of helicobacter pylori infections” (Albert Einstein College of Medicine, Inc., priority 2012, dated 2021)
Like-named read-outs stand apart in the source and are kept apart here.

Tests used:
[1] = test system: S. enterica; assay: Growth of S. enterica on MacConkey agar; format: cell-based; details: culture concentrations to 5 μg/ml, 24 hours
Protocol: (§1) At the desired concentration of the test substance BuT-DADMe-ImmA (30), K pneumoniae, S. flexneri and S. enterica were grown on MacConkey agar at 37° C. for 24 hours, and S. aureus and P. aeruginosa were grown on LB agar at 37° C. for 24 hours.
(§2) In most bacteria, MTANs are expressed and catalyze the hydrolysis of the N-ribosidic bonds of 5′-methylthioadenosine and S-adenosylhomocysteine. The two reactions are involved in bacterial quorum sensing, sulfur recycling via S-adenosylmethionine and polyamine synthesis^16; however, most bacterial MTANs are not essential for bacterial proliferation as judged by planktonic growth conditions. […] The effects BuT-DADMe-ImmA were also tested on the growth for additional clinically common pathogens, S. aureus, K pneumoniae, S. flexneri, S. enterica and P. aeruginosa. […] Because of the inhibitor specificity for this rare menaquinone pathway, treatment of H. pylori infections with BuT-DADMe-ImmA would be unlikely to generate antibiotic resistance in off-target bacterial species.

[2] = test system: E. coli; details: reference 6; cited from earlier work
[3] = test system: S. flexneri; assay: Growth of S. flexneri on MacConkey agar; format: cell-based; details: culture concentrations to 5 μg/ml, 24 hours
Protocol: as §1, §2

[4] = molecular target: T1, H. pylori MTAN (Helicobacter pylori, UniProt Q9ZMY2); assay: Ki determination: inhibition of recombinant HpMTAN, xanthine oxidase coupled assay, 5′-methylthioadenosine as substrate; format: biochemical
T1 construct: His6 (N); made in house; host or cells: E. coli BL21 (DE3)
T1 sequence (Q9ZMY2 1-230): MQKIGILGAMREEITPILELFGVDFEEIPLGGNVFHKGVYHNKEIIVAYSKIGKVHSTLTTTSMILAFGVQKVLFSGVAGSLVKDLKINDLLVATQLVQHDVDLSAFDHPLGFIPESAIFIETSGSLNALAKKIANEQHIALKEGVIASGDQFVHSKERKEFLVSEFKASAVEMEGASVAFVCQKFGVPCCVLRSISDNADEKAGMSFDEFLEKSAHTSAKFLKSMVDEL
Protocol: The purification procedure of HpMTAN was described previously^10. Briefly, BL21 (DE3) cells harboring a plasmid encoding HpMTAN with an N-terminal His6-tag were grown to an optical density of 0.7 measured at 595 nm and IPTG was introduced to a final concentration of 0.5 mM. After another 15 h at 22° C., cells were collected by centrifugation. The pellet was suspended and later disrupted by pressure cell and sonication. The soluble portion was applied to a Ni-NTA column and HpMTAN was eluted with an imidazole concentration gradient of 200 to 500 mM. The protein was desalted using a Superdex G15 gel-filtration column then equilibrated and concentrated in 10 mM Hepes, 30 mM KCl, pH 7.6. The purity was confirmed by SDS-PAGE.
Kinetics of HpMTAN were determined using a direct assay involving absorbance decrease at 274 nm continuously as a consequence of formation of free adenine from 5′-methylthioadenosine. The Ki and Ki* values of BuT-DADMe-ImmA (30) were determined using coupled assays, in which xanthine oxidase was used as the coupling enzyme and absorbance increase was followed at 292 nm as the product adenine is converted to 2,8-dihydroxyadenine. Both assays have been previously described
BuT-DADMe-ImmA (30) was previously characterized as a transition state analogue inhibitor of EcMTAN (FIG. 1C)^8. Here, inhibition assays were performed using BuT-DADMe-ImmA against recombinant HpMTAN with 5′-methylthioadenosine as substrate. Purified HpMTAN uses both 5′-methylthioadenosine and 6-amino-6-deoxyfutalosine as facile substrates. […] The low Kd value supports the proposal that BuT-DADMe-ImmA is a transition state analogue inhibitor for HpMTAN. […] The nitrogen of the hydroxypyrrolidine moiety has a pKa value of 9, and thus mimics the positive charge of a ribocation at the transition state. The methylene bridge extends the distance between the sugar and the purine base leaving group, as this distance is near 3 Å at the transition state. The 9-deazaadenine alters conjugation in the purine ring, causing an elevated pKa and protonation of N7, resembling the N7-protonated adenine leaving group at the transition state.

[5] = molecular target: T1, H. pylori MTAN; details: Table 3, cited from earlier work
[6] = molecular target: T2, MTAN (Vibrio cholerae serotype O1, UniProt Q9KPI8); details: reference 6; cited from earlier work
T2 construct: host or cells: V. cholerae cells
T2 sequence (Q9KPI8 whole entry): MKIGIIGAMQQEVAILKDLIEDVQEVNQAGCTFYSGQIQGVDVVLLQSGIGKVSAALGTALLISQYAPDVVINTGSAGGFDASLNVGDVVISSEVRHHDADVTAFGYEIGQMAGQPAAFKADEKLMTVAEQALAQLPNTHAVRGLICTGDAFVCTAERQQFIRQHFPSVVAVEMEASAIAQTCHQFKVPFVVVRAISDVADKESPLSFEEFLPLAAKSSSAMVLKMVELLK

[7] = test system: H. pylori; assay: Zone of inhibition (disc) on H. pylori; format: cell-based, Helicobacter pylori
Protocol: FIG. 3A-3B: The effects of BuT-DADMe-ImmA (30) on H. pylori growth. A. The effects of increasing the concentration of BuT-DADMe-ImmA (ng/ml) on growth on blood agar. B. The inhibitory effects of BuT-DADMe-ImmA are compared with amoxicillin, metronidazole and tetracyclin in zone of inhibition studies. Drug concentrations were: 0 (top disc), 10 ng (middle disc) or 20 ng (bottom disc). Each specified antibiotic was applied to the disc in the same manner.
(§3) H. pylori were grown for 72 hours under microaerophilic condition (5% O2, 10% CO2 and 85% N2) at 37° C. on tryptic soy agar with 5% horse blood. To determine the MIC values, the test substance was added to the gel solution right before pouring. To compare the zones of inhibition, specific antibiotics were added to the center of disc after spreading H. pylori, and then H. pylori was allowed to grow for 72 hours under microaerophilic condition at 37° C.
Commonly used antibiotics in H. pylori infections include amoxicillin, metronidazole and tetracycline. The anti-H. pylori effects of BuT-DADMe-ImmA (30) were compared to those antibiotics in common use. […] Thus, BuT-DADMe-ImmA is more efficient at inhibition of H. pylori growth than commonly used antibiotics.

[8] = test system: V. cholerae; details: reference 6; cited from earlier work
[9] = stated without a test; cited from earlier work
[10] = test system: P. aeruginosa; assay: Growth of P. aeruginosa on LB agar; format: cell-based; details: culture concentrations to 5 μg/ml, 24 hours
Protocol: as §1, §2

[11] = test system: K. pneumoniae; assay: Growth of K. pneumoniae on MacConkey agar; format: cell-based; details: culture concentrations to 5 μg/ml, 24 hours
Protocol: as §1, §2

[12] = test system: H. pylori; assay: H. pylori growth on tryptic soy agar with 5% horse blood (MIC); format: cell-based, Helicobacter pylori; details: for MIC90: Helicobacter pylori
Protocol: as §3
The effects of BuT-DADMe-ImmA (30) were tested on H. pylori growing on 5% horse blood agar. At 6 ng/ml, slight growth was detected and at 8 ng/ml, no growth was detected, therefore the MIC90 value for inhibition of H. pylori growth is <8 ng/ml (FIG. 3A).

[13] = test system: S. aureus; assay: Growth of S. aureus on LB agar; format: cell-based; details: culture concentrations to 5 μg/ml, 24 hours
Protocol: as §1, §2

[14] = molecular target: T3, MTAN (Escherichia coli, UniProt P0AF12); details: reference 6; cited from earlier work
T3 construct: host or cells: E. coli cells
T3 sequence (P0AF12 whole entry): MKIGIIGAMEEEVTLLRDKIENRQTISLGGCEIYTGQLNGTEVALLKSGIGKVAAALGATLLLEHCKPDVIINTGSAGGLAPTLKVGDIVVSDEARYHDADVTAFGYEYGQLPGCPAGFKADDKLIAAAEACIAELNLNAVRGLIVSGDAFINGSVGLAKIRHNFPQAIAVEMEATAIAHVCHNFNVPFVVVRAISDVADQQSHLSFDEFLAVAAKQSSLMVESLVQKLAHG

Question: With `CCCCSC[C@H]1CN(Cc2c[nH]c3c(N)ncnc23)C[C@@H]1O` [Compound 30, (3R,4S)-4-(1-butylthiomethyl)-1-[(9-deaza-adenin-9-yl)-methyl]-3-hydroxypyrrolidine] as the molecule, how does the “growth inhibition of S. enterica” value [1] read?
Answer: no growth inhibition

Question: What about the “effect on growth of E. coli” value [2] of the same molecule?
Answer: did not affect the growth

Question: What about the “growth inhibition of S. flexneri” value [3] of the same molecule?
Answer: no growth inhibition

Question: What about the Ki ([4]; 5′-methylthioadenosine as substrate, read-out: initial inhibition constant (Ki)) of the same molecule?
Answer: 0.8 nM

Question: And the Km/Kd ratio ([4]; Km 0.8 μM for 6-amino-6-deoxyfutalosine as substrate)?
Answer: 22,200

Question: What about the Kd ([4]; following slow-onset of inhibition, read-out: equilibrium dissociation constant (Ki*=Kd)) of the same molecule?
Answer: 0.036 nM

Question: And the Ki ([5]; value from Reference 10, read-out: Inhibition of H. pylori MTAN Ki*)?
Answer: 0.036 ± 0.002 nM

Question: What about the Ki ([5]; value marked (Reference 10), read-out: Inhibition of H. pylori MTAN Ki) of the same molecule?
Answer: 0.79 ± 0.04 nM

Question: What about the “MTAN activity in V. cholerae” value [6] of the same molecule?
Answer: totally abolished

Question: And the zones of clearance ([7]; 10 ng on disc)?
Answer: Small zones of clearance

Question: What about the zones of clearance ([7]; 20 ng on disc) of the same molecule?
Answer: large zones

Question: And the “zones of inhibition, comparison of antibiotics” value ([7]; equivalent amounts (10 ng or 20 ng per disc))?
Answer: greater than those for any of the other antibiotics

Question: What about the “effect on growth of V. cholerae” value [8] of the same molecule?
Answer: did not affect the growth

Question: And the “pKa value of the nitrogen of the hydroxypyrrolidine moiety” value [9]?
Answer: 9

Question: And the “growth inhibition of P. aeruginosa” value [10]?
Answer: no growth inhibition

Question: And the “growth inhibition of K. pneumoniae” value [11]?
Answer: no growth inhibition

Question: And the MIC90 ([12]; 5% horse blood agar, read-out: MIC90 value for inhibition of H. pylori growth)?
Answer: < 8 ng/mL

Question: What about the MIC90 ([12]; Table 3, agar plate, 72 hours, microaerophilic, read-out: Inhibition of H. pylori growth MIC90) of the same molecule?
Answer: 6 to 8 ng/mL

Question: And the MIC90 ([12]; corresponds to MIC90 of 8 ng/ml, read-out: MIC90 as chemical concentration)?
Answer: 0.023 µM

Question: What about the H. pylori growth ([12]; at 6 ng/ml, 5% horse blood agar) of the same molecule?
Answer: slight growth

Question: And the H. pylori growth ([12]; at 8 ng/ml, 5% horse blood agar)?
Answer: no growth

Question: And the “growth inhibition of S. aureus” value [13]?
Answer: no growth inhibition

Question: And the “MTAN activity in E. coli” value [14]?
Answer: totally abolished
